# In patent publication US20240150293A1, “SPIROCYCLOHEXANE DERIVATIVES, PHARMACEUTICAL COMPOSITIONS CONTAINING THEM AND THEIR USES AS ANTI-APOPTOTIC INHIBITORS” (LES LABORATOIRES SERVIER, priority 2021, published 2024):
# Target: Mcl-1 protein (UniProtKB Q07820) (Homo sapiens (Human), UniProt Q07820)
# Assay: Inhibition of Mcl-1 by the fluorescence polarisation assay (Example A, Method A)
# Type: binding
# Settings: fluorescence polarization assay
# Method in brief: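 Protein (5 nM) and fluorescein-tagged peptide tracer (1 nM) incubated with 11-point compound series for 2 h at room temperature in HEPES/NaCl/Tween 20 buffer, pH 7.4, 5% DMSO. Displacement read as decrease in polarisation; IC50 fitted by 4-parameter logistic, converted to Ki (cKi or eKi).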
# Chain of Mcl-1 protein (Q07820 whole entry): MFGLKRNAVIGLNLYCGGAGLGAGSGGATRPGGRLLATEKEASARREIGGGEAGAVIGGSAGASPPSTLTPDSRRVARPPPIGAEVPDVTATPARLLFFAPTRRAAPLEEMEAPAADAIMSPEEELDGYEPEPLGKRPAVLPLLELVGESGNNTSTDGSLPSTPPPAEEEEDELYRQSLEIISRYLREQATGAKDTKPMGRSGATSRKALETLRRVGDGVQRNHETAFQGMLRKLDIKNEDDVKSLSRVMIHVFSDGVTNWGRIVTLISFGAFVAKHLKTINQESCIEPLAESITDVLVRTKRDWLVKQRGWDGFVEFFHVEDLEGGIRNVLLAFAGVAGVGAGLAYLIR
row,Ki [µM],Compound
1,0.236,"CC1CCc2nccc(OCCCC3Cc4ccccc4[C@]34CC[C@@](Nc3ccccc3)(C(=O)O)CC4)c21 (stereo partly shown) [Example 477, (1r,4r)-4-anilino-2′-{3-[(5-methyl-6,7-dihydro-5H-cyclopenta[b]pyridin-4-yl)oxy]propyl}-2′,3′-dihydrospiro[cyclohexane-1,1′-indene]-4-carboxylic acid]"
2,0.0297,"CC1CCc2nccc(OCCCC3Cc4ccccc4[C@]34CC[C@@](Nc3cccc(Cl)c3)(C(=O)O)CC4)c21 (stereo partly shown) [Example 478, (1r,4r)-4-(3-chloroanilino)-2′-{3-[(5-methyl-6,7-dihydro-5H-cyclopenta[b]pyridin-4-yl)oxy]propyl}-2′,3′-dihydrospiro[cyclohexane-1,1′-indene]-4-carboxylic acid]"
3,0.809,"Cn1ccc(OCCCC2Cc3ccccc3[C@]23CC[C@@](Nc2cccc(Cl)c2)(C(=O)O)CC3)cc1=O (stereo partly shown) [Example 479, (1r,4r)-4-(3-chloroanilino)-2′-{3-[(1-methyl-2-oxo-1,2-dihydropyridin-4-yl)oxy]propyl}-2′,3′-dihydrospiro[cyclohexane-1,1′-indene]-4-carboxylic acid]"
4,0.431,"CN1C(=O)Cc2cc(OCCCC3Cc4ccccc4[C@]34CC[C@@](Nc3cccc(Cl)c3)(C(=O)O)CC4)ccc21 (stereo partly shown) [Example 480, (1r,4r)-4-(3-chloroanilino)-2′-{3-[(1-methyl-2-oxo-2,3-dihydro-1H-indol-5-yl)oxy]propyl}-2′,3′-dihydrospiro[cyclohexane-1,1′-indene]-4-carboxylic acid]"
5,0.154,"O=C(O)[C@]1(Nc2cccc(Cl)c2)CC[C@]2(CC1)C(CC(CO)COc1ccnc3ccsc13)=Cc1ccccc12 (stereo partly shown) [Example 491, (1r,4r)-4-(3-chloroanilino)-2′-{2-(hydroxymethyl)-3-[(thieno[3,2-b]pyridin-7-yl)oxy]propyl}spiro[cyclohexane-1,1′-indene]-4-carboxylic acid]"
6,0.0937,"O=C(O)[C@]1(Nc2cccc(Cl)c2)CC[C@]2(CC1)C(CC(COc1ccnc3ccsc13)COc1ccnc3ccsc13)=Cc1ccccc12 [Example 492, (1r,4r)-4-(3-chloroanilino)-2′-(3-[(thieno[3,2-b]pyridin-7-yl)oxy]-2-{[(thieno[3,2-b]pyridin-7-yl)oxy]methyl}propyl)spiro[cyclohexane-1,1′-indene]-4-carboxylic acid]"
7,1.78,"COCC(COC)CC1=Cc2ccccc2[C@]12CC[C@@](Nc1cccc(Cl)c1)(C(=O)O)CC2 [Example 493, (1r,4r)-4-(3-chloroanilino)-2′-[3-methoxy-2-(methoxymethyl)propyl]spiro[cyclohexane-1,1′-indene]-4-carboxylic acid]"
8,77.8,"COCC(F)(F)CC1Cc2ccccc2[C@]12CC[C@@](Nc1cccc(Cl)c1)(C(=O)O)CC2 (stereo partly shown) [Example 502, (1r,4r)-4-(3-chloroanilino)-2′-(2,2-difluoro-3-methoxypropyl)-2′,3′-dihydrospiro[cyclohexane-1,1′-indene]-4-carboxylic acid]"
9,0.185,"CC[C@H](COc1cccnc1)C[C@H]1Cc2ccccc2[C@]12CC[C@@](Nc1cccc(Cl)c1)(C(=O)O)CC2 [Example 540, (1r,2′S,4S)-4-(3-chloroanilino)-2′-[(2S)-2-{[(pyridin-3-yl)oxy]methyl}butyl]-2′,3′-dihydrospiro[cyclohexane-1,1′-indene]-4-carboxylic acid]"
10,1.17,"CC[C@H](COc1ccccc1)C[C@H]1Cc2ccccc2[C@]12CC[C@@](Nc1cccc(Cl)c1)(C(=O)O)CC2 [Example 541, (1r,2′S,4S)-4-(3-chloroanilino)-2′-[(2S)-2-(phenoxymethyl)butyl]-2′,3′-dihydrospiro[cyclohexane-1,1′-indene]-4-carboxylic acid]"
11,0.187,CC[C@H](COc1ccncc1)C[C@H]1Cc2ccccc2[C@]12CC[C@@](Nc1cccc(Cl)c1)(C(=O)O)CC2 [Example 542]
12,0.155,"C[C@@H](COc1ccccc1)CC1Cc2ccccc2[C@]12CC[C@@](Nc1cccc(Cl)c1)(C(=O)O)CC2 (stereo partly drawn) [Example 567, (1r,4R)-4-(3-chloroanilino)-2′-[(2R)-2-methyl-3-phenoxypropyl]-2′,3′-dihydrospiro[cyclohexane-1,1′-indene]-4-carboxylic acid]"
13,0.124,"Cc1cnccc1OC[C@H](C)CC1Cc2ccccc2[C@]12CC[C@@](Nc1cccc(Cl)c1)(C(=O)O)CC2 (stereo partly drawn) [Example 576, (1r,4R)-4-(3-chloroanilino)-2′-{(2R)-2-methyl-3-[(3-methylpyridin-4-yl)oxy]propyl}-2′,3′-dihydrospiro[cyclohexane-1,1′-indene]-4-carboxylic acid]"
14,0.216,"C[C@@H](COc1ccnc(CO)c1)C[C@H]1Cc2ccccc2[C@]12CC[C@@](Nc1cccc(Cl)c1)(C(=O)O)CC2 [Example 579, (1r,2′S,4S)-4-(3-chloroanilino)-2′-[(2R)-3-{[2-(hydroxymethyl)pyridin-4-yl]oxy}-2-methylpropyl]-2′,3′-dihydrospiro[cyclohexane-1,1′-indene]-4-carboxylic acid]"
15,0.0475,"C[C@@H](COc1ccnc(C(F)F)c1)C[C@H]1Cc2ccccc2[C@]12CC[C@@](Nc1cccc(Cl)c1)(C(=O)O)CC2 [Example 581, (1r,2′S,4S)-4-(3-chloroanilino)-2′-[(2R)-3-{[2-(difluoromethyl)pyridin-4-yl]oxy}-2-methylpropyl]-2′,3′-dihydrospiro[cyclohexane-1,1′-indene]-4-carboxylic acid]"
16,0.71,"C[C@H](COc1ccnc2ccsc12)CC1Cc2ccccc2[C@]12CC[C@@](Nc1cccc(Cl)c1)(C(=O)O)CC2 (stereo partly drawn) [Example 592, (1r,4S)-4-(3-chloroanilino)-2′-{(2S)-2-methyl-3-[(thieno[3,2-b]pyridin-7-yl)oxy]propyl}-2′,3′-dihydrospiro[cyclohexane-1,1′-indene]-4-carboxylic acid]"
17,0.164,"CC(F)(COc1ccnc2c1CCC2)CC1Cc2ccccc2[C@]12CC[C@@](Nc1cccc(Cl)c1)(C(=O)O)CC2 (stereo partly shown) [Example 607, (1r,4r)-4-(3-chloroanilino)-2′-{3-[(6,7-dihydro-5H-cyclopenta[b]pyridin-4-yl)oxy]-2-fluoro-2-methylpropyl}-2′,3′-dihydrospiro[cyclohexane-1,1′-indene]-4-carboxylic acid]"

row,Compound,Ki [µM]
1,"C[C@@H](COc1ccnc(N)c1)C[C@H]1Cc2ccccc2[C@]12CC[C@@](Nc1cccc(Cl)c1)(C(=O)O)CC2 [Example 583, (1r,2′S,4S)-2′-{(2R)-3-[(2-aminopyridin-4-yl)oxy]-2-methylpropyl}-4-(3-chloroanilino)-2′,3′-dihydrospiro[cclohexane-1,1′-indene]-4-carboxylic acid]",0.191

# Target: Cy5-labelled Mcl1 (amino acids 171-321) C286S protein (UniProtKB Q07820) (Homo sapiens (Human), UniProt Q07820, C286S)
# Sequence (Q07820 171-321 C286S): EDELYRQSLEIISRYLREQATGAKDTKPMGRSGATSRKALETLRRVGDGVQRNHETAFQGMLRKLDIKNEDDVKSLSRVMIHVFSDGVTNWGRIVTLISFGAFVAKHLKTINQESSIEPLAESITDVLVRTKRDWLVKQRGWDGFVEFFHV
# Assay: Inhibition of Mcl-1 by the fluorescence quenching assay (Example A, Method B)
# Type: binding
# Settings: not given
# Description: Fluorescence quenching assay measures the change fluorescence intensity of C-terminally Cy5-labelled Mcl1 (amino acids 171-321) C286S protein (UniProtKB® primary accession number Q07820) having an amino acid sequence:
# which is linked at the C-terminus to the amino acid X which corresponds to a cysteine labelled on the sulfur with sulpho-Cyanine5 from Lumiprobe GmbH catalogue number 13380, upon binding of a C-terminally labelled peptide derived from PUMA (UniProtKB® primary accession number Q9BXH1) having an amino acid sequence:
# which is linked at the C-terminus to the amino acid X′, where X′ is cysteine labelled on the sulfur with TQ5WS from AAT Bioquest catalogue number 2079.
# The addition of a compound which binds competitively to the same site as the peptide will result in an increase in the fluorescence intensity of the protein due to displacement of the fluorescence quencher.
# An 11-point serial dilution of each compound was prepared in DMSO, the final buffer conditions were 10 mM 4-(2-hydroxyethyl)-1-piperazineethanesulfonic acid [HEPES], 150 mM NaCl, 0.05% Tween 20, pH 7.4 and 5% DMSO. The final protein concentration in the assay was 1 nM with the peptide present at 10, 20 or 400 nM. The experiments were incubated for 2 hours at room temperature before fluorescence intensity was measured on a Biotek SynergyNeo plate reader (Excitation 620 nm, emission 680 nm). The dose response curves were plotted with XL-Fit software using a 4-Parameter Logistic Model (Sigmoidal DoseResponse Model) and the inhibitory concentrations that gave a 50% increase in fluorescence intensity was determined (IC50). The Ki values were determined from the IC50 values according to Cer et al, Nucleic Acids Res, 2009, 37 (WebServer issue): W441-W445. Inhibition constants (Ki) are determined from complete binding inhibition curves (cKi) or from estimated from incomplete binding inhibition curves (eKi) in most cases due to low activity.
row,Ki [µM],Compound
1,0.0018,"O=C(O)[C@]1(Nc2cccc(Cl)c2)CC[C@@]2(CC1)c1ccccc1CC2CC(COCCN1CCOCC1)COc1ccnc2c1CCC2 (mixture of isomers) [Example 496, (1r,4r)-4-(3-chloroanilino)-2′-(2-{[(6,7-dihydro-5H-cyclopenta[b]pyridin-4-yl)oxy]methyl}-3-[2-(morpholin-4-yl)ethoxy]propyl)-2′,3′-dihydrospiro[cyclohexane-1,1′-indene]-4-carboxylic acid]"
2,0.0299,"O=C(O)[C@]1(Nc2cccc(Cl)c2)CC[C@@]2(CC1)c1ccccc1CC2CC(F)COc1ccnc2c1CCC2 (mixture of isomers) [Example 504, (1r,4r)-4-(3-chloroanilino)-2′-{3-[(6,7-dihydro-5H-cyclopenta[b]pyridin-4-yl)oxy]-2-fluoropropyl}-2′,3′-dihydrospiro[cyclohexane-1,1′-indene]-4-carboxylic acid]"
3,0.0741,"O=C(O)[C@]1(Nc2cccc(Cl)c2)CC[C@@]2(CC1)c1ccccc1CC2CC(CO)COc1ccnc2c1CCC2 (single isomer, unassigned) [Example 499, (1r,4r)-4-(3-chloroanilino)-2′-(2-{[(6,7-dihydro-5H-cyclopenta[b]pyridin-4-yl)oxy]methyl}-3-hydroxypropyl)-2′,3′-dihydrospiro[cyclohexane-1,1′-indene]-4-carboxylic acid]"
4,0.0155,"O=C(O)[C@]1(Nc2cccc(Cl)c2)CC[C@@]2(CC1)c1ccccc1CC2CC(CO)COc1ccnc2c1CCC2 (single isomer, unassigned) [Example 500, (1r,4r)-4-(3-chloroanilino)-2′-(2-{[(6,7-dihydro-5H-cyclopenta[b]pyridin-4-yl)oxy]methyl}-3-hydroxypropyl)-2′,3′-dihydrospiro[cyclohexane-1,1′-indene]-4-carboxylic acid]"
